Results reported in patent publication US20060270666A1, “Quinoxaline derivatives as neutrophil elastase inhibitors and their use” (priority 2003, published 2006).

molecular target: T1, Human Neutrophil Elastase (HNE) (Homo sapiens, UniProt P08246); experiment: Human Neutrophil Elastase Quenched-FRET Assay; assay type: biochemical; conditions: HNE purified from serum; substrate MeOSuc-AAPV-AMC; 15 min pre-incubation, 30 min incubation at room temperature; read-out: Inhibition of Human Neutrophil Elastase IC50
T1 construct: Human Neutrophil Elastase (HNE) purified from serum (Calbiochem art. 324681); purchased Calbiochem 324681; host or cells: natural human material (serum)
T1 sequence (P08246 30-267): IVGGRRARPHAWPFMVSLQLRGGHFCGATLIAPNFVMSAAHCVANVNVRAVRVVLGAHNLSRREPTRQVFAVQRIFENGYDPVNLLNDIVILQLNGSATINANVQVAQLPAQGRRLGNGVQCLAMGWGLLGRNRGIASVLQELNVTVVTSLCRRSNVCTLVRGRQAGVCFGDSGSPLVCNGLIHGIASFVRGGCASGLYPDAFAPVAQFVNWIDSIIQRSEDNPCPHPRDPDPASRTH
Method: Human Neutrophil Elastase Quenched-FRET Assay
The assay uses Human Neutrophil Elastase (HNE) purified from serum (Calbiochem art. 324681; Ref. Baugh, R. J. et al., 1976, Biochemistry. 15, 836-841). HNE was stored in 50 mM NaOAc, 200 mM NaCl, pH 5.5 with added 30% glycerol at −20° C. The protease substrate used was Elastase Substrate V Fluorogenic, MeOSuc-AAPV-AMC (Calbiochem art. 324740; Ref. Castillo, M. J. et al., 1979, Anal. Biochem. 99, 53-64). The substrate was stored in DMSO at −20° C. The assay additions were as follows: Test compounds and controls were added to black 96-well flat-bottom plates (Greiner 655076), 1 μL in 100% DMSO, followed by 30 μL HNE in assay buffer with 0.01% TritonX-100. The assay buffer constitution was: 100 mM Tris (pH 7.5) and 500 mM NaCl. The enzyme and the compounds were incubated at room temperature for 15 minutes. Then 30 μl substrate in assay buffer was added. The assay was stopped after 30 minutes incubation at room temperature by adding 60 μl stop solution (140 mM acetic acid, 200 mM sodium monochloroacetate, 60 mM sodium acetate, pH 4.3). Fluorescence was measured on a Wallac 1420 Victor 2 instrument at settings: Excitation 380 nm, Emission 460 nm. IC50 values were determined using Xlfit curve fitting using model 205.

Structure (SMILES) | IC50 [nM]
N#CC1CCC(CNC(=O)c2nc3ccccc3n(-c3cccc(C(F)(F)F)c3)c2=O)CC1 (stereo not drawn) [Example 2.10, N-[(4-Cyanocyclohexyl)methyl]-3-oxo-4-[3-(trifluoromethyl)phenyl]-3,4-dihydroquinoxaline-2-carboxamide] | 248
Cc1ccc(CNC(=O)c2nc3ccccc3n(-c3cccc(C(F)(F)F)c3)c2=O)cc1 [Example 2.12, N-(4-Methylbenzyl)-3-oxo-4-[3-(trifluoromethyl)phenyl]-3,4-dihydroquinoxaline-2-carboxamide] | 226
O=C(NCCc1ccc(F)cc1)c1nc2ccccc2n(-c2cccc(C(F)(F)F)c2)c1=O [Example 2.20, N-[2-(4-Fluorophenyl)ethyl]-3-oxo-4-[3-(trifluoromethyl)phenyl]-3,4-dihydroquinoxaline-2-carboxamide] | 573
